# Measurements: PMC9238401, “Peptide Conjugates Derived from flg15, Pep13, and PIP1 That Are Active against Plant-Pathogenic Bacteria and Trigger Plant Defense Responses” (Applied and Environmental Microbiology, 2022)
# Non-standard residues stand in square brackets, D forms with d. Residues, ends and D or L forms follow the SMILES beside them. No end group written: not given here. *: point of attachment. Butyryl = CCCC(=O)*
# Assays:
# tobacco leaves = assay: Effect of peptide infiltration on tobacco leaves (phytotoxicity); format: in vivo; details: 100 μL infiltrated into mesophyll, lesion diameter 48 h after infiltration, at least three leaves; ± confidence interval (α = 0.05)
# Description: Peptide conjugates were also assayed for their toxicity in tobacco leaves (Fig. 3, Table SC). After 48 h of infiltration, melittin caused a necrotic area of 0.70 and 2.17 cm in diameter at 50 and 250 μM, respectively. The monomers were not phytotoxic at those concentrations; all of them led to lesions of ≤1.2 cm at 250 μM. All peptide conjugates were also less phytotoxic than melittin, causing necrotic lesions between 0.26 and 1.67 cm in diameter at 250 μM. In particular, 15 of the 30 conjugates led to a necrotic area of <1 cm at this concentration. In general, sequences incorporating BP13 were among the most phytotoxic.
# Peptide conjugates were evaluated for their effect on infiltration on tobacco leaves as described previously ([41]). Peptide solutions of 50, 150, and 250 μM were infiltrated (100 μL) into the mesophylls of fully expanded tobacco leaves. Infiltrations were carried out in a single leaf, and for each peptide and dose, at least three leaves randomly distributed in different plants were inoculated. Control infiltrations with water (negative control) or melittin (positive control) at the same molar concentration were performed. The appearance of symptoms on the leaves was followed for 48 h after infiltration and measured as lesion diameter.
# horse erythrocytes = details: TRIS buffer pH 7.2, 1 h, 37°C, absorbance 540 nm, relative to melittin 100 μM, ± confidence interval (α = 0.05)
# Description: The toxicity of peptide conjugates to eukaryotic cells was determined as the ability to lyse erythrocytes (Table SB).
# The hemolytic activity of the compounds was evaluated by determining hemoglobin release from erythrocyte suspensions of horse blood (5% vol/vol) (Oxoid) as previously described ([45]). Blood was centrifuged at 6000g for 5 min, washed three times with TRIS buffer (10 mM TRIS, 150 mM NaCl, pH 7.2) and diluted 10 times. Compounds were solubilized in TRIS buffer at 750, 500, 300, and 100 μM and mixed with horse erythrocytes (1:1 vol/vol). The mixture was incubated with continuous shaking for 1 h at 37°C. Then, the tubes were centrifuged at 3500g for 10 min, 80-μL aliquots of the supernatant were transferred to 100-well microplates (Bioscreen) and diluted with 80 μL water, and the absorbance measured at 540 nm (Bioscreen). […] The percentage of hemolysis (H) was calculated using the equation H = 100 × ([Op − Ob]/[Om − Ob]), where Op is the density for a given compound concentration, Ob is that for the buffer, and Om is that for the melittin positive control.
# [1] = system: Xanthomonas fragariae Xf349-9A; assay: In vitro growth inhibition (MIC); format: cell-based; details: TSB, 25°C, 48 h, OD 600 nm (Bioscreen C), three replicates, experiment repeated twice; MIC given as range
# Description: (§1) Peptide conjugates were tested for in vitro growth inhibition of the plant-pathogenic bacteria E. amylovora PMV6076, Xanthomonas arboricola pv. pruni CFBP5563, X. fragariae Xf349-9A, X. axonopodis pv. vesicatoria 2133-2, P. syringae pv. actinidiae Psa3700.1.1, and P. syringae pv. syringae EPS94 (Fig. 1, Table SA). The corresponding monomers (flg15, BP13, Pep13, PIP1, BP16, BP100, BP143, BP387, BP475, and KSL-W) were included for comparison.
# (§2) The following plant-pathogenic bacterial strains were used: Erwinia amylovora PMV6076 (Institut National de la Recherche Agronomique, Angers, France), Pseudomonas syringae pv. syringae EPS94 (Institut de Tecnologia Agroalimentària, University of Girona, Spain), Xanthomonas axonopodis pv. vesicatoria 2133-2, X. axonopodis pv. vesicatoria Xav206 (Xav) (D. F. Ritchie, Department of Plant Pathology, North Carolina State University), Pseudomonas syringae pv. actinidiae Psa3700.1.1, Xanthomonas fragariae Xf349-9A (Instituto Valenciano de Investigaciones Agrarias, Valencia, Spain), and Xanthomonas arboricola pv. pruni CFBP5563 (Collection Française de Bactéries Associées aux Plantes, Angers, France). All bacteria except for X. fragariae were stored in Luria Bertani (LB) broth supplemented with glycerol (20%) and maintained at −80°C. For X. fragariae, medium B ([80]) was used instead of LB. E. amylovora, X. arboricola pv. pruni, P. syringae pv. syringae, and P. syringae pv. actinidiae were scraped from the agar medium after growing for 24 h at 25°C, and X. axonopodis pv. vesicatoria and X. fragariae, after growing for 48 h at 25°C. The cell material was suspended in sterile water to obtain a suspension of 10^8 CFU mL^−1.
# (§3) Lyophilized peptides were solubilized in sterile Milli-Q water to a final concentration of 1 mM and filter-sterilized through a 0.22-μm pore filter. […] Then, 20 μL of each dilution were mixed in a microtiter plate well with 20 μL of the corresponding suspension of the bacterial indicator, 160 μL of Trypticase soy broth (TSB) (bioMérieux, France) to a total volume of 200 μL. Three replicates for each combination of strain, compound, and concentration were used. Microbial growth was determined by optical density measurement at 600 nm (Bioscreen C; Labsystem, Helsinki, Finland). Microplates were incubated at 25°C with 20 s of shaking before hourly absorbance measurement for 48 h. The experiment was repeated twice. The MIC was taken as the lowest compound concentration with no growth at the end of the experiment.
# [2] = system: Erwinia amylovora PMV6076; assay: In vitro growth inhibition (MIC); format: cell-based; details: TSB, 25°C, 48 h, OD 600 nm (Bioscreen C), three replicates, experiment repeated twice; MIC = lowest concentration with no growth, given as range
# Description: as §1, §2, §3
# [3] = system: Xanthomonas arboricola pv. pruni CFBP5563; assay: In vitro growth inhibition (MIC); format: cell-based; details: TSB, 25°C, 48 h, OD 600 nm (Bioscreen C), three replicates, experiment repeated twice; MIC given as range
# Description: as §1, §2, §3
# [4] = system: Pseudomonas syringae pv. actinidiae Psa3700.1.1; assay: In vitro growth inhibition (MIC); format: cell-based; details: TSB, 25°C, 48 h, OD 600 nm (Bioscreen C), three replicates, experiment repeated twice; MIC given as range
# Description: as §1, §2, §3
# [5] = system: Pseudomonas syringae pv. syringae EPS94; assay: In vitro growth inhibition (MIC); format: cell-based; details: TSB, 25°C, 48 h, OD 600 nm (Bioscreen C), three replicates, experiment repeated twice; MIC given as range
# Description: as §1, §2, §3
# [6] = system: Xanthomonas axonopodis pv. vesicatoria 2133-2; details: TSB, 25°C, 48 h, OD 600 nm (Bioscreen C), three replicates, experiment repeated twice; MIC given as range
# Description: The corresponding monomers (flg15, BP13, Pep13, PIP1, BP16, BP100, BP143, BP387, BP475, and KSL-W) were included for comparison.
# as §2, §3
Compound,Size of the lesions in infiltrated tobacco leaves at 50 μM (tobacco leaves),Size of the lesions in infiltrated tobacco leaves at 250 μM (tobacco leaves),Percent hemolysis at 50 μM (horse erythrocytes),Percent hemolysis at 150 μM (horse erythrocytes),Percent hemolysis at 250 μM (horse erythrocytes),Percent hemolysis at 375 μM (horse erythrocytes),"MIC, Xf [1]","MIC, Ea [2]","MIC, Xap [3]","MIC, Psa [4]","MIC, Pss [5]",Size of the lesions in infiltrated tobacco leaves at 150 μM (tobacco leaves),"MIC, Xav [6]"
"CC[C@H](C)[C@H](NC(=O)[C@H](CCCCN)NC(=O)[C@H](CCCCN)NC(=O)[C@H](Cc1ccccc1)NC(=O)[C@H](CC(C)C)NC(=O)[C@H](CCCCN)NC(=O)[C@@H](N)CCCCN)C(=O)N[C@@H](CC(C)C)C(=O)N[C@@H](CCCCN)C(=O)N[C@@H](Cc1ccc(O)cc1)C(=O)N[C@@H](CC(C)C)C(N)=O [BP100, reference compound]",0.40 ± 0.03 cm,1.20 ± 0.16 cm,4 ± 0.5%,7 ± 2%,6 ± 0.3%,11 ± 0.9%,,,,,,,
KKLFKKILKYL-FKLFKKILKVL-NH2 [BP100-BP13],0.73 ± 0.20 cm,1.46 ± 0.06 cm,100 ± 9.4%,100 ± 5.5%,98 ± 3.3%,99 ± 3.7%,6.2 to 12.5 µM,> 50 µM,12.5 to 25 µM,25 to 50 µM,> 50 µM,1.36 ± 0.23 cm,6.2 to 12.5 µM
FKLFKKILKVL-KKLfKKILKYL-NH2 [BP13-BP143],0.53 ± 0.18 cm,1.07 ± 0.37 cm,100 ± 0.6%,100 ± 3.7%,100 ± 3.2%,100 ± 10.6%,12.5 to 25 µM,> 50 µM,6.2 to 12.5 µM,> 50 µM,> 50 µM,0.88 ± 0.15 cm,1.6 to 3.1 µM
"CCCC(=O)NCCCC[C@H](NC(=O)[C@H](CCCCN)NC(=O)[C@H](CC(C)C)NC(=O)[C@@H](NC(=O)[C@H](CCCCN)NC(=O)[C@H](CCCCN)NC(=O)[C@@H](Cc1ccccc1)NC(=O)[C@H](CC(C)C)NC(=O)[C@H](CCCCN)NC(=O)[C@H](CCCCN)NC(C)=O)[C@@H](C)CC)C(=O)N[C@@H](CC(C)C)C(N)=O [BP475, reference compound] (Ac-KKL[dF]KKILKK(Butyryl)L-NH2)",0.50 ± 0.10 cm,1.00 ± 0.10 cm,0 ± 0%,0 ± 0%,0 ± 0%,0 ± 0%,1.6 to 3.1 µM,3.1 to 6.2 µM,0.8 to 1.6 µM,1.6 to 3.1 µM,3.1 to 6.2 µM,0.70 ± 0.20 cm,1.6 to 3.1 µM
FKLFKKILKVL-KKLFKKILKYL-NH2 [BP13-BP100],0.60 ± 0.30 cm,1.30 ± 0.17 cm,100 ± 8.3%,100 ± 5.9%,99 ± 7.1%,100 ± 4.8%,6.2 to 12.5 µM,> 50 µM,12.5 to 25 µM,25 to 50 µM,> 50 µM,1.20 ± 0.17 cm,12.5 to 25 µM
"CC[C@H](C)[C@H](NC(=O)[C@H](CCCCN)NC(=O)[C@H](CCCCN)NC(=O)[C@H](Cc1ccccc1)NC(=O)[C@H](CC(C)C)NC(=O)[C@H](CCCCN)NC(=O)[C@@H](N)CCCCN)C(=O)N[C@@H](CC(C)C)C(=O)N[C@@H](CCCCN)C(=O)N[C@@H](CCCCN)C(=O)N[C@@H](CC(C)C)C(N)=O [BP16, reference compound]",0.08 ± 0.11 cm,0.26 ± 0.08 cm,2 ± 1%,1 ± 0.6%,1 ± 0.4%,3 ± 3%,,,,,,0.16 ± 0.16 cm,
"KKVVFWVKFK-NH2 [KSL-W, reference compound]",0 ± 0 cm,0.62 ± 0.45 cm,4 ± 1%,5 ± 0.2%,6 ± 1%,20 ± 2%,,,,,,0.37 ± 0.97 cm,
"CC[C@H](C)[C@H](NC(=O)[C@H](CCCCN)NC(=O)[C@H](CCCCN)NC(=O)[C@@H](Cc1ccccc1)NC(=O)[C@H](CC(C)C)NC(=O)[C@H](CCCCN)NC(=O)[C@@H](N)CCCCN)C(=O)N[C@@H](CC(C)C)C(=O)N[C@@H](CCCCN)C(=O)N[C@@H](Cc1ccc(O)cc1)C(=O)N[C@@H](CC(C)C)C(N)=O [BP143, reference compound]",0.10 ± 0.12 cm,0.65 ± 0.11 cm,3 ± 0.6%,4 ± 0.6%,6 ± 0.3%,7 ± 0.3%,,,,,,0.37 ± 0.15 cm,
melittin [reference compound],0.70 cm,2.17 cm,,,,,,,,,,,
